Assay results reported in US7560267B2, “Apparatus and methods for on-chip monitoring of cellular reactions” (City University of Hong Kong, priority 2002, dated 2009).

What was measured:
HL60 cells [1] = test: On-chip ATP-dependent calcium uptake in docked HL60 cells (Fluo-3 fluorescence, concentration gradient); type: cell-based
Procedure: A practical embodiment of the present invention will now be described with reference to a typical experiment of the type for which the present invention is particularly suitable. In particular, in the following example an embodiment of the invention will be used to calculate the threshold ATP concentration that induces calcium uptake in HL60 mammalian cells. In this example HL60 cells (leukemia, promyelocytic) were suspended in 0.5 ml fresh RPMI 1640 with Pluronic F-127 (1% w/v final) and Fluo3-AM (2 micro molar final). After 30 minutes of incubation at room temperature, cells were re-suspended in (Hank's balanced salt solution) HBSS before loading into the apparatus. The example was carried out with an apparatus as shown in FIG. 1 and manufactured as described above. Before use, the etched quartz plate and a PDMS cover were touch-bonded and irradiated with UV light for 10 minutes in a bio-safety cabinet. After filling up micro-channels with buffer by capillary action, the apparatus was securely mounted on the stage of confocal microscope. Introduction of various fluids was implemented by using a 2-20 […] auto-pipette (HLT pipette-mate). An Axiovert 100M confocal microscope (Carl Zeiss) was used for data acquisition. Profiling data analysis mode was employed to present PMT response along a specific line in the apparatus. All fluorophores were excited by Argon (488 nm) laser. An emission filter 505-530 nm was used for Fluo-3 and AO while a 560 nm (long-pass) filter was used for ethidium bromide (EB) study. Scanning parameters were kept identical throughout all experiments for a particular fluorophore. Mammalian HL60 cells uptake extracellular calcium ions when the buffer ATP concentration is beyond a particular level. The minimum ATP concentration required to induce calcium uptake is referred as the threshold concentration. In this example of the use of an embodiment of the invention, cell docking and analyte concentration gradient were combined to determine the threshold concentration of ATP-dependent calcium uptake. The fluorescence images of the microchip under different conditions are shown in FIG. 6, with about 80 docked cells along the dam. In the “control” image and intensity measurement, the background cellular signal was due to the presence of intracellular calcium in HL60 cells. When an ATP solution (2 μM) was loaded into the CW/A vial, the cellular signal intensity was increased by 3-fold in the first zone (A to B) as compared to other zones (FIGS. 6 & 7, 2 μM images). The ATP threshold concentration can therefore be visualized as being between points B and C. After washing with buffer, the same batch of docked HL60 cells were exposed to higher ATP concentrations. Using the same LLP, the threshold concentration range shifted downstream with increasing analyte concentrations. As shown in FIGS. 6 & 7, with 5 μM ATP loaded into the apparatus, the cellular fluorescence intensity-in the first (A to B) and second (C to D) zones were enhanced. The threshold concentration range was shifted to the zone between points D & E. Repeating this process with 10 μM ATP, the Ca-related fluorescence in all cells in all zones were excited, (the signal intensity at the first zone was relatively weak due to desensitization from multiple ATP stimulations.). […] Using this equation, a relationship between liquid levels H and flow quantity Q can be derived: H=RQ+KQ2 (2) where parameters R and K depends on the geometrical profile of the channels. […]

HL60 cells [2] = test: ATP threshold concentration by conventional fluorescence measurements (13 serial dilution experiments); type: cell-based; settings: 13 individual serial dilution experiments, FIG. 8
Procedure: FIG. 8 is a plot of ATP threshold concentration obtained by conventional techniques for comparison purposes, In this example, first of all a viability test was carried out to confirm that after docking a sufficient number of living cells were safely docked, and then a concentration gradient was made visible by a fluorophore. When the presence of a viable number of docked cells, and the creation of a concentration gradient were confirmed, the threshold concentration for calcium uptake was calculated using the apparatus of the invention, and then the results compared with an experiment using conventional serial dilution techniques. The ATP concentration gradient along the dam structure was estimated according to the above computational model. Combining the results obtained in 2 μM and 5 μM ATP stimulations, the threshold concentration was estimated within a range of 0.16±0.02 μM. The threshold concentration was also determined using conventional fluorescence measurements. […] The threshold concentration range was determined to be 0.15-0.19 μM, which is in good agreement with the result obtained using the embodiment of the present invention.

## Nc1ncnc2c1ncn2[C@@H]1O[C@H](COP(=O)(O)OP(=O)(O)OP(=O)(O)O)[C@@H](O)[C@H]1O [ATP]
HL60 cells [1]; 2 μM ATP loaded into CW/A vial, first zone (A to B) compared to other zones
  increase of cellular signal intensity (fold): 3 fold
HL60 cells [1]; 5 μM ATP loaded, first (A to B) and second (C to D) zones
  cellular fluorescence intensity: enhanced
HL60 cells [1]; 10 μM ATP loaded, all cells in all zones
  Ca-related fluorescence: excited
HL60 cells [1]; on-chip, HL60 cells, estimated from computational gradient model combining 2 μM and 5 μM ATP stimulations
  threshold concentration of ATP-dependent calcium uptake: 0.16 ± 0.02 µM
HL60 cells [1]; on-chip, HL60 cells, indicated by experimental results before gradient estimation
  threshold ATP concentration: below 2 μM
HL60 cells [2]
  threshold concentration range: 0.15 to 0.19 µM
